Data as given in patent US4968609A, “Coryneform bacteria carrying recombinant DNA and a process for producing aromatic amino acids using said bacteria” (priority 1984, dated 1990).

Tests used:
[1] = tested on: 3-deoxy-D-arabinoheptulonic acid-7-phosphate synthetase (DS) of Brevibacterium lactofermentum AJ 11957; experiment: DS activity of crude enzyme solution with amino acids added, strain AJ 11957; details: 1 mM each; crude enzyme of AJ 11957; activity with none added = 100%
[2] = tested on: 3-deoxy-D-arabinoheptulonic acid-7-phosphate synthetase (DS) of Brevibacterium lactofermentum AJ 12036; experiment: DS activity of crude enzyme solution with amino acids added, strain AJ 12036; details: 1 mM each; crude enzyme of AJ 12036; activity with none added = 100%
[3] = tested on: 3-deoxy-D-arabinoheptulonic acid-7-phosphate synthetase (DS) of Brevibacterium lactofermentum AJ 12181(AJ 12036/pAR-1); experiment: DS activity of crude enzyme solution with amino acids added, strain AJ 12181 (AJ 12036/pAR-1); details: 1 mM each; crude enzyme of AJ 12181 (AJ 12036/pAR-1); activity with none added = 100%
[4] = tested on: 3-deoxy-D-arabinoheptulonic acid-7-phosphate synthetase (DS) of Brevibacterium lactofermentum AJ 12182(AJ 12036/pAR-2); experiment: DS activity of crude enzyme solution with amino acids added, strain AJ 12182 (AJ 12036/pAR-2); details: 1 mM each; crude enzyme of AJ 12182 (AJ 12036/pAR-2); activity with none added = 100%
[5] = tested on: Brevibacterium lactofermentum AJ 12036 transformed with pAR-1 and pAR-2; experiment: Sensitivity of retransformants to m-fluorophenylalanine; format: cell-based; details: 50 chloramphenicol-resistant retransformants of AJ 12036 with pAR-1 and pAR-2
Protocol: After culturing at 30° C. for 2 weeks, about 25000 colonies resistant to chloramphenicol appeared, which were replicated in minimal medium (which contained 2% of glucose, 1% of ammonium sulfate, 0.3% of urea, 0.1% of KH2 PO4, 0.04% of MgSO4 ·7H2 O, 2 ppm of iron ions, 2 ppm of manganese ions, […] of thiamine hydrochloride, 50 μg/ml of biotin, 500 μg/ml of m-fluorophenylalanine and 10 μg/ml of chloramphenicol, pH 7.0, 1.8% of agar) to obtain 5 strains resistant to chloramphenicol and m-fluorophenylalanine.
In order to confirm that the gene was present on the recombinant plasmid carrying the DNA fragment, Brevibacterium lactofermentum AJ 12036 was again transformed using the plasmids pARl and pAR-2.
Clearly the genes imparting the m-fluorophenylalanine resistance were present on the above-described plasmids.

| Compound | Residual Activity When Each Amino Acid Was Added [1] [%] | Residual Activity When Each Amino Acid Was Added [2] [%] | Residual Activity When Each Amino Acid Was Added [3] [%] | Residual Activity When Each Amino Acid Was Added [4] [%] | sensitivity to m-fluorophenylalanine [5] |
| --- | --- | --- | --- | --- | --- |
| N[C@@H](Cc1ccccc1)C(=O)O [Phenylalanine, phenylalanine] | 107 | 94 | 112 | 99 | – |
| N[C@@H](Cc1ccc(O)cc1)C(=O)O [Tyrosine, tyrosine] | – | 51 | 109 | 88 | – |
| N[C@@H](Cc1cccc(F)c1)C(=O)O [m-fluorophenylalanine] | – | – | – | – | All of the strains demonstrated m-fluorophenylalanine resistance |
